Source: ChEMBL document CHEMBL1255407, “High diversity of extended-spectrum beta-lactamases in Escherichia coli isolates from Italian broiler flocks” (2010)

Legend:
Escherichia coli [1] = experiment: Antimicrobial activity against Escherichia coli isolates producing extended-spectrum beta-lactamases bla(CTX-M-1), bla(CTX-M-32) and bla(SHV-12) isolated from Italian broiler flocks by agar dilution method; type: functional
Escherichia coli [2] = experiment: Antimicrobial activity against Escherichia coli isolates producing extended-spectrum beta-lactamases bla(CTX-M-1), bla(CTX-M-32) and bla(SHV-12) assessed as resistant isolates isolated from Italian broiler flocks by disk diffusion method

SMILES	MIC (Escherichia coli [1])	Activity (Escherichia coli [2])
O=C(O)c1cn(C2CC2)c2cc(N3CCNCC3)c(F)cc2c1=O [CIPROFLOXACIN]	< 0.03 µg/mL	44%
CN(C)[C@@H]1C(O)=C(C(N)=O)C(=O)[C@@]2(O)C(O)=C3C(=O)c4c(O)cccc4[C@@](C)(O)[C@H]3C[C@@H]12 [TETRACYCLINE]	–	94%
CO/N=C(\C(=O)N[C@@H]1C(=O)N2C(C(=O)O)=C(CSC(=O)c3ccco3)CS[C@H]12)c1csc(N)n1 [CEFTIOFUR]	≥ 8 µg/mL	–
CO/N=C(\C(=O)N[C@@H]1C(=O)N2C(C(=O)O)=C(COC(C)=O)CS[C@H]12)c1csc(N)n1 [CEFOTAXIME]	≥ 2 µg/mL	–
CCn1cc(C(=O)O)c(=O)c2ccc(C)nc21 [NALIDIXIC ACID]	–	83%
